Assay results taken from the supplement of paper PMC10307832.

How the values were obtained:
Assay in all cases: relative viability (nuclei count vs DMSO), 5 days (fraction); higher = more cells survive
Afatinib + Palbociclib = compound: CN(C)C/C=C/C(=O)Nc1cc2c(Nc3ccc(F)c(Cl)c3)ncnc2cc1O[C@H]1CCOC1 [Afatinib] + CC(=O)c1c(C)c2cnc(Nc3ccc(N4CCNCC4)cn3)nc2n(C2CCCC2)c1=O [Palbociclib] (partner 0.5 µM)
Summary of the method: (§1)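 Relative viability is defined as nuclei in treated wells over nuclei in vehicle wells. Duplicate plates were run and medians reported. Lung cancer cell lines in 1536-well plates were dosed by pin tool one day after seeding, with one drug or with a fixed anchor-drug dose plus five library-drug doses (not always all listed) in √10 steps, and nuclei were counted after 5 days.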

Afatinib + Luminespib = compound: CN(C)C/C=C/C(=O)Nc1cc2c(Nc3ccc(F)c(Cl)c3)ncnc2cc1O[C@H]1CCOC1 [Afatinib] + CCNC(=O)c1noc(-c2cc(C(C)C)c(O)cc2O)c1-c1ccc(CN2CCOCC2)cc1 [Luminespib] (partner 0.01 µM)
Summary of the method: as §1

Afatinib + OSI-027 = compound: CN(C)C/C=C/C(=O)Nc1cc2c(Nc3ccc(F)c(Cl)c3)ncnc2cc1O[C@H]1CCOC1 [Afatinib] + COc1cccc2cc(-c3nc([C@H]4CC[C@H](C(=O)O)CC4)n4ncnc(N)c34)[nH]c12 [OSI-027] (partner 0.5 µM)
Summary of the method: as §1

Afatinib + Pictilisib = compound: CN(C)C/C=C/C(=O)Nc1cc2c(Nc3ccc(F)c(Cl)c3)ncnc2cc1O[C@H]1CCOC1 [Afatinib] + CS(=O)(=O)N1CCN(Cc2cc3nc(-c4cccc5[nH]ncc45)nc(N4CCOCC4)c3s2)CC1 [Pictilisib] (partner 1 µM)
Summary of the method: as §1

NCI-H2009
relative viability (Afatinib + Palbociclib; first compound 0.005 µM): 0.238
relative viability (Afatinib + Palbociclib; first compound 0.01581 µM): 0.25
relative viability (Afatinib + Palbociclib; first compound 0.05 µM): 0.253
relative viability (Afatinib + Palbociclib; first compound 0.1581 µM): 0.231
relative viability (Afatinib + Palbociclib; first compound 0.5 µM): 0.247
relative viability (Afatinib + Luminespib; first compound 0.005 µM): 1.08
relative viability (Afatinib + Luminespib; first compound 0.01581 µM): 1.04
relative viability (Afatinib + Luminespib; first compound 0.05 µM): 1.13
relative viability (Afatinib + Luminespib; first compound 0.1581 µM): 1.02
relative viability (Afatinib + Luminespib; first compound 0.5 µM): 1.08
relative viability (Afatinib + OSI-027; first compound 0.005 µM): 0.635
relative viability (Afatinib + OSI-027; first compound 0.01581 µM): 0.633
relative viability (Afatinib + OSI-027; first compound 0.05 µM): 0.714
relative viability (Afatinib + OSI-027; first compound 0.1581 µM): 0.516
relative viability (Afatinib + OSI-027; first compound 0.5 µM): 0.459
relative viability (Afatinib + Pictilisib; first compound 0.005 µM): 0.875
relative viability (Afatinib + Pictilisib; first compound 0.01581 µM): 0.822
relative viability (Afatinib + Pictilisib; first compound 0.05 µM): 0.95
relative viability (Afatinib + Pictilisib; first compound 0.1581 µM): 0.786
relative viability (Afatinib + Pictilisib; first compound 0.5 µM): 0.74

BEN
relative viability (Afatinib + Palbociclib; first compound 0.005 µM): 0.447
relative viability (Afatinib + Palbociclib; first compound 0.01581 µM): 0.565
relative viability (Afatinib + Palbociclib; first compound 0.05 µM): 0.535
relative viability (Afatinib + Palbociclib; first compound 0.1581 µM): 0.455
relative viability (Afatinib + Palbociclib; first compound 0.5 µM): 0.484
relative viability (Afatinib + Luminespib; first compound 0.005 µM): 0.366
relative viability (Afatinib + Luminespib; first compound 0.01581 µM): 0.24
relative viability (Afatinib + Luminespib; first compound 0.05 µM): 0.261
relative viability (Afatinib + Luminespib; first compound 0.1581 µM): 0.549
relative viability (Afatinib + Luminespib; first compound 0.5 µM): 0.288
relative viability (Afatinib + OSI-027; first compound 0.005 µM): 0.326
relative viability (Afatinib + OSI-027; first compound 0.01581 µM): 0.283
relative viability (Afatinib + OSI-027; first compound 0.05 µM): 0.297
relative viability (Afatinib + OSI-027; first compound 0.1581 µM): 0.299
relative viability (Afatinib + OSI-027; first compound 0.5 µM): 0.298
relative viability (Afatinib + Pictilisib; first compound 0.005 µM): 0.563
relative viability (Afatinib + Pictilisib; first compound 0.01581 µM): 0.532
relative viability (Afatinib + Pictilisib; first compound 0.05 µM): 0.565
relative viability (Afatinib + Pictilisib; first compound 0.1581 µM): 0.601
relative viability (Afatinib + Pictilisib; first compound 0.5 µM): 0.589

PC-14
relative viability (Afatinib + Palbociclib; first compound 0.005 µM): 0.0841
relative viability (Afatinib + Palbociclib; first compound 0.01581 µM): 0.0837
relative viability (Afatinib + Palbociclib; first compound 0.05 µM): 0.079
relative viability (Afatinib + Palbociclib; first compound 0.1581 µM): 0.0664
relative viability (Afatinib + Palbociclib; first compound 0.5 µM): 0.0642
relative viability (Afatinib + Luminespib; first compound 0.005 µM): 0.152
relative viability (Afatinib + Luminespib; first compound 0.01581 µM): 0.115
relative viability (Afatinib + Luminespib; first compound 0.05 µM): 0.19
relative viability (Afatinib + Luminespib; first compound 0.1581 µM): 0.126
relative viability (Afatinib + Luminespib; first compound 0.5 µM): 0.144
relative viability (Afatinib + OSI-027; first compound 0.005 µM): 0.103
relative viability (Afatinib + OSI-027; first compound 0.01581 µM): 0.104
relative viability (Afatinib + OSI-027; first compound 0.05 µM): 0.136
relative viability (Afatinib + OSI-027; first compound 0.1581 µM): 0.131
relative viability (Afatinib + OSI-027; first compound 0.5 µM): 0.0975
relative viability (Afatinib + Pictilisib; first compound 0.005 µM): 0.109
relative viability (Afatinib + Pictilisib; first compound 0.01581 µM): 0.0863
relative viability (Afatinib + Pictilisib; first compound 0.05 µM): 0.108
relative viability (Afatinib + Pictilisib; first compound 0.1581 µM): 0.0958
relative viability (Afatinib + Pictilisib; first compound 0.5 µM): 0.0837

SK-MES-1
relative viability (Afatinib + Palbociclib; first compound 0.005 µM): 0.305
relative viability (Afatinib + Palbociclib; first compound 0.01581 µM): 0.289
relative viability (Afatinib + Palbociclib; first compound 0.05 µM): 0.306
relative viability (Afatinib + Palbociclib; first compound 0.1581 µM): 0.257
relative viability (Afatinib + Palbociclib; first compound 0.5 µM): 0.257
relative viability (Afatinib + Luminespib; first compound 0.005 µM): 0.476
relative viability (Afatinib + Luminespib; first compound 0.01581 µM): 0.399
relative viability (Afatinib + Luminespib; first compound 0.05 µM): 0.481
relative viability (Afatinib + Luminespib; first compound 0.1581 µM): 0.277
relative viability (Afatinib + Luminespib; first compound 0.5 µM): 0.49
relative viability (Afatinib + OSI-027; first compound 0.005 µM): 0.36
relative viability (Afatinib + OSI-027; first compound 0.01581 µM): 0.405
relative viability (Afatinib + OSI-027; first compound 0.05 µM): 0.307
relative viability (Afatinib + OSI-027; first compound 0.1581 µM): 0.265
relative viability (Afatinib + OSI-027; first compound 0.5 µM): 0.26
relative viability (Afatinib + Pictilisib; first compound 0.005 µM): 0.273
relative viability (Afatinib + Pictilisib; first compound 0.01581 µM): 0.238
relative viability (Afatinib + Pictilisib; first compound 0.05 µM): 0.217
relative viability (Afatinib + Pictilisib; first compound 0.1581 µM): 0.213
relative viability (Afatinib + Pictilisib; first compound 0.5 µM): 0.208

NCI-H727
relative viability (Afatinib + Palbociclib; first compound 0.005 µM): 0.586
relative viability (Afatinib + Palbociclib; first compound 0.01581 µM): 0.637
relative viability (Afatinib + Palbociclib; first compound 0.05 µM): 0.6
relative viability (Afatinib + Palbociclib; first compound 0.1581 µM): 0.506
relative viability (Afatinib + Palbociclib; first compound 0.5 µM): 0.544
relative viability (Afatinib + Luminespib; first compound 0.005 µM): 0.404
relative viability (Afatinib + Luminespib; first compound 0.05 µM): 0.416
relative viability (Afatinib + Luminespib; first compound 0.1581 µM): 0.282
relative viability (Afatinib + Luminespib; first compound 0.5 µM): 0.345
relative viability (Afatinib + OSI-027; first compound 0.005 µM): 0.699
relative viability (Afatinib + OSI-027; first compound 0.01581 µM): 0.447
relative viability (Afatinib + OSI-027; first compound 0.05 µM): 0.511
relative viability (Afatinib + OSI-027; first compound 0.1581 µM): 0.49
relative viability (Afatinib + OSI-027; first compound 0.5 µM): 0.56
relative viability (Afatinib + Pictilisib; first compound 0.005 µM): 0.315
relative viability (Afatinib + Pictilisib; first compound 0.01581 µM): 0.401
relative viability (Afatinib + Pictilisib; first compound 0.05 µM): 0.306
relative viability (Afatinib + Pictilisib; first compound 0.1581 µM): 0.279
relative viability (Afatinib + Pictilisib; first compound 0.5 µM): 0.281

NCI-H1355
relative viability (Afatinib + Palbociclib; first compound 0.005 µM): 0.397
relative viability (Afatinib + Palbociclib; first compound 0.01581 µM): 0.338
relative viability (Afatinib + Palbociclib; first compound 0.05 µM): 0.351
relative viability (Afatinib + Palbociclib; first compound 0.1581 µM): 0.274
relative viability (Afatinib + Palbociclib; first compound 0.5 µM): 0.315
relative viability (Afatinib + Luminespib; first compound 0.005 µM): 0.703
relative viability (Afatinib + Luminespib; first compound 0.01581 µM): 0.685
relative viability (Afatinib + Luminespib; first compound 0.05 µM): 0.642
relative viability (Afatinib + Luminespib; first compound 0.1581 µM): 0.647
relative viability (Afatinib + Luminespib; first compound 0.5 µM): 0.582
relative viability (Afatinib + OSI-027; first compound 0.005 µM): 0.388
relative viability (Afatinib + OSI-027; first compound 0.01581 µM): 0.341
relative viability (Afatinib + OSI-027; first compound 0.05 µM): 0.348
relative viability (Afatinib + OSI-027; first compound 0.1581 µM): 0.361
relative viability (Afatinib + OSI-027; first compound 0.5 µM): 0.276
relative viability (Afatinib + Pictilisib; first compound 0.005 µM): 0.39
relative viability (Afatinib + Pictilisib; first compound 0.01581 µM): 0.467
relative viability (Afatinib + Pictilisib; first compound 0.05 µM): 0.482
relative viability (Afatinib + Pictilisib; first compound 0.1581 µM): 0.36
relative viability (Afatinib + Pictilisib; first compound 0.5 µM): 0.21

NCI-H1975
relative viability (Afatinib + Palbociclib; first compound 0.005 µM): 0.72
relative viability (Afatinib + Palbociclib; first compound 0.01581 µM): 0.469
relative viability (Afatinib + Palbociclib; first compound 0.05 µM): 0.472
relative viability (Afatinib + Palbociclib; first compound 0.1581 µM): 0.253
relative viability (Afatinib + Palbociclib; first compound 0.5 µM): 0.21
relative viability (Afatinib + Luminespib; first compound 0.005 µM): 0.199
relative viability (Afatinib + Luminespib; first compound 0.01581 µM): 0.18
relative viability (Afatinib + Luminespib; first compound 0.05 µM): 0.199
relative viability (Afatinib + Luminespib; first compound 0.1581 µM): 0.122
relative viability (Afatinib + Luminespib; first compound 0.5 µM): 0.169
relative viability (Afatinib + OSI-027; first compound 0.005 µM): 0.81
relative viability (Afatinib + OSI-027; first compound 0.01581 µM): 0.644
relative viability (Afatinib + OSI-027; first compound 0.05 µM): 0.688
relative viability (Afatinib + OSI-027; first compound 0.1581 µM): 0.303
relative viability (Afatinib + OSI-027; first compound 0.5 µM): 0.147
relative viability (Afatinib + Pictilisib; first compound 0.005 µM): 0.293
relative viability (Afatinib + Pictilisib; first compound 0.01581 µM): 0.185
relative viability (Afatinib + Pictilisib; first compound 0.05 µM): 0.164
relative viability (Afatinib + Pictilisib; first compound 0.1581 µM): 0.17
relative viability (Afatinib + Pictilisib; first compound 0.5 µM): 0.0947

LK-2
relative viability (Afatinib + Palbociclib; first compound 0.005 µM): 0.621
relative viability (Afatinib + Palbociclib; first compound 0.01581 µM): 0.633
relative viability (Afatinib + Palbociclib; first compound 0.05 µM): 0.656
relative viability (Afatinib + Palbociclib; first compound 0.1581 µM): 0.673
relative viability (Afatinib + Palbociclib; first compound 0.5 µM): 0.584
relative viability (Afatinib + Luminespib; first compound 0.005 µM): 0.191
relative viability (Afatinib + Luminespib; first compound 0.01581 µM): 0.185
relative viability (Afatinib + Luminespib; first compound 0.05 µM): 0.185
relative viability (Afatinib + Luminespib; first compound 0.1581 µM): 0.188
relative viability (Afatinib + Luminespib; first compound 0.5 µM): 0.192
relative viability (Afatinib + OSI-027; first compound 0.005 µM): 0.213
relative viability (Afatinib + OSI-027; first compound 0.01581 µM): 0.188
relative viability (Afatinib + OSI-027; first compound 0.05 µM): 0.194
relative viability (Afatinib + OSI-027; first compound 0.1581 µM): 0.156
relative viability (Afatinib + OSI-027; first compound 0.5 µM): 0.216
relative viability (Afatinib + Pictilisib; first compound 0.005 µM): 0.546
relative viability (Afatinib + Pictilisib; first compound 0.05 µM): 0.485
relative viability (Afatinib + Pictilisib; first compound 0.1581 µM): 0.596
relative viability (Afatinib + Pictilisib; first compound 0.5 µM): 0.535
